Experimental data: US8551952B2, “Methods for the treatment and prevention of ocular disorders” (Scynexis, Inc., priority 2006, dated 2013)
Like-named read-outs stand apart in the source and are kept apart here.

How the values were obtained:
[1] = test system: T-cell proliferation (T-cells isolated from mouse spleens); settings: read-out: IC50 MLR; C57BL/6 responder and irradiated BALB/c stimulator spleen cells, 5 days
Description: Murine Mixed Lymphocyte Response (MLR) assay: This assay monitored T-cell proliferation by measurement of tritiated thymidine incorporation into DNA of T-cells isolated from mouse spleens; T-cell proliferation is directly proportional to tritium incorporation into DNA. Pooled spleen cells were prepared from three mice each of two strains: three C57BL/6 and three BALB/c mice. The C57BL/6 mice were used as the Responders (R) and BALB mice were the Stimulators (S) in the MLR. Complete medium consisted of RPMI 1640 supplemented with 25 mM HEPES, 10% heat-inactivated low background fetal bovine serum, 50 μM 2-mercatoethanol, 2 mM L-glutamine, and antibiotics.
The BALB/c spleen cells were gamma irradiated at 3000 Roentgen in a Bevill irradiator and washed once with medium to use as S cells; the stock of S cells was 1.6×10^6/mL in complete medium. The R cells were stocked at 8×10^5/mL in complete medium. Final cell densities were 2×10^5 R and 4×10^5 S per test well in a 96-well microtiter plate. Compounds were diluted from a 10 mM stock solution in DMSO into culture medium; compounds were tested at 10 concentrations between 0.001 and 30 μM (three-fold dilutions).
Background control wells contained 150 μL of medium/0.3% DMSO and 50 μL of R cells (2×10^5/well). All other wells contained 100 μL of medium/0.3% DMSO or compound (also in 0.3% DMSO), 50 μL of R cells (2×10^S/well), and 50 μL of S cells (4×10^5/well). Plates were incubated at 37° C. in 5% CO2 for 5 days, and subsequently pulsed with 1 μCi/well of 3H-thymidine for 6-18 hours. Cells were harvested, and tritium incorporation was measured using a scintillation counter.

IL4 = settings: read-out: Approximate IC50 for cytokine production IL4; human T-lymphocytes stimulated with anti-CD3/anti-CD28 beads, 24 hours; average of cultures of two donors
Description: (§1) Assays with human cells are used to determine if compounds I) inhibit T-cell activation (using cytokine release as a biomarker), and 2) reduce or prevent cytokine-induced pathologies.
(§2) Compounds were incubated with stimulated human T-lymphocytes in an in vitro system designed to measure cytokine production; cytokine production is indicative of T-cell activation and consequential cytokine-induced damage in vivo. […] Cells were treated in triplicate with compounds or vehicle (DMSO) in cell culture medium for 2 hours at 37 deg C. Cells were then stimulated with 5 μL of anti-CD3/anti-CD28 ExpandBeads (DynaBeads, Invitrogen 111.31) and incubated for 24 hours. Compounds were tested at three concentrations: 0.02, 0.2 and 2 μM. Untreated controls were performed for each cytokine marker. The following cytokines were quantitatively determined using specific ELISA kits, according to manufacturer instructions: IL2 (Eli-pair, Diaclone), IL4 (ImmunoTools 313.300.49), tumor necrosis factor alpha (TNFα, ImmunoTools 313.330.1), and Interferon gamma (IFN-γ) Eli-pair, Diaclone).

IL2 = settings: read-out: Approximate IC50 for cytokine production IL2; human T-lymphocytes stimulated with anti-CD3/anti-CD28 beads, 24 hours; average of cultures of two donors
Description: as §1, §2

TNF-α = settings: read-out: Approximate IC50 for cytokine production TNF-α; human T-lymphocytes stimulated with anti-CD3/anti-CD28 beads, 24 hours; average of cultures of two donors
Description: as §1, §2

IFN-γ = settings: read-out: Approximate IC50 for cytokine production IFN-γ; human T-lymphocytes stimulated with anti-CD3/anti-CD28 beads, 24 hours; average of cultures of two donors
Description: as §1, §2

[2] = artificial tear formulation
Description: The solubilities of compounds in artificial tear formulations were determined using turbidimetric titration (Schote, et al., 2002. J Pharm Sciences 91(3):856). The different tear formulations are buffered and contain various physiological electrolytes including, sodium, potassium, phosphate, and chloride. The formulations differ primarily in the “active” ingredients that provide lubrication and viscosity.

[3] = test system: chorio-allantoic membranes (CAM) of fertilized chicken eggs; settings: for Classification: HET-CAM classification of irritation potential; for Total Score: HET-CAM, sum of scores, average across eggs
Description: In this test, chorio-allantoic membranes (CAM) of fertilized chicken eggs are exposed to a solution of the test substance in sterile water. During an incubation period of approximately 5 minutes, irritancy is assessed by visual inspection of the CAM blood vessel network for haemorrhage, lysis and/or coagulation. The time of onset or appearance of each of these effects is scored numerically, the scores are summed to give a single numerical value, and an average numerical score across several eggs is obtained.

eyes of rabbits = settings: 0.05% (w/w) in an artificial tear formulation, instillation in right eyes over three days
Description: The compounds of the invention were evaluated for tolerability upon instillation in the eyes of rabbits over a three day test period. Rabbits receive five instillations within 20 minutes of fifty microliters of a solution of the test substance in vehicle once on Day 1, twice on Day 2 and four times on Day 3 in the right eyes. Evaluation of ocular irritancy was performed using the Draize scale (Draize et al. J. Pharmacol. Exp. Ther. 1944. 82: 377).

[4] = HET-CAM score, approximately 5 minutes incubation

Compound | IC50 [1] | IC50 (IL4) | IC50 (IL2) | IC50 (TNF-α) | IC50 (IFN-γ) | Minimum Solubility ([2]; pH 6.2, Polyethylene glycol 400 (1%), Polyvinyl alcohol (1%)) | Minimum Solubility ([2]; pH 6.7 (adjusted with HCl from 7.4), Dextran 70 (0.1%), Hydroxypropyl methyl-cellulose 2910 (0.3%)) | Minimum Solubility ([2]; pH 6.8, Carboxymethylcellulose sodium (0.5%)) | Minimum Solubility ([2]; pH 7.3, Propylene Glycol (0.95%), Glycerin (0.3%)) | Minimum Solubility ([2]; pH 7.4, Dextran 70 (0.1%), Hydroxypropyl methyl-cellulose 2910 (0.3%)) | Classification [3] | Lysis [3, 4] | Total Score [3] | Ocular tolerability (Draize scale) (eyes of rabbits) | Coagulation [3, 4] | Haemorhage [3, 4]
3-[2-(morpholin-4-yl)ethoxy]cyclosporin [F] | 500 nM | ~200 nM | ~20 nM | ~200 nM | ~200 nM |  |  |  |  |  |  |  |  |  |  | 
C/C=C/C[C@@H](C)[C@@H](O)[C@H]1C(=O)N[C@@H](CC)C(=O)N(C)C(OCCN(C)C)C(=O)N(C)[C@@H](CC(C)C)C(=O)N[C@@H](C(C)C)C(=O)N(C)[C@@H](CC(C)C)C(=O)N[C@@H](C)C(=O)N[C@H](C)C(=O)N(C)[C@@H](CC(C)C)C(=O)N(C)[C@@H](CC(C)C)C(=O)N(C)[C@@H](C(C)C)C(=O)N1C (stereo partly shown) [Compound A, 3-[2-(N,N-dimethylamino)ethoxy]cyclosporin] | 200 nM | ~2000 nM |  | ~2000 nM | ~2000 nM | 151 µM | 350 µM | 130 µM | 117 µM | 141 µM | Slightly irritant | 3.5 | 3.5 | very well tolerated |  | 
CC=CCC(C)C(O)C1C(=O)NC(CC)C(=O)N(C)C(OCCN2CCCCC2)C(=O)N(C)C(CC(C)C)C(=O)NC(C(C)C)C(=O)N(C)C(CC(C)C)C(=O)NC(C)C(=O)NC(C)C(=O)N(C)C(CC(C)C)C(=O)N(C)C(CC(C)C)C(=O)N(C)C(C(C)C)C(=O)N1C (stereo not shown) [D, 3-[2-(piperidin-1-yl)ethoxy]cyclosporin] | 200 nM | ~2000 nM | ~1000 nM | ~2000 nM | ~1000 nM |  |  |  |  |  | Slightly irritant | 3 | 3.0 |  | 0 | 0
